Measured values published in patent publication US20250388605A1, “HETEROBIFUNCTIONAL COMPOUNDS AND METHODS OF TREATING DISEASE” (Halda Therapeutics OpCo, Inc., priority 2022, published 2025).

Legend:
T47D cells = assay: Cellular Growth Inhibition Assay for T47D Cells (CellTiter-Glo); assay type: cell-based, human; conditions: 72 hours
Procedure, shortened: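 GI50 values derive from four-parameter regression of CellTiter-Glo 2.0 luminescence, using zero luminescence as baseline. Human breast cancer T47D cells (3000/well; DMEM, 10% FBS, 0.2 units/mL insulin) were exposed for 72 h to compound dilutions at 0.5% DMSO, with dosing starting 24 h after seeding.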

[1] = system: T-Rex 293 cell line SC cells lacking increased expression of progesterone receptor isoform B protein; assay: Cellular growth inhibition assay, T-Rex 293 SC cells not exposed to doxycycline (no increased progesterone receptor isoform B expression), CellTiter-Glo; assay type: cell-based; conditions: T-Rex 293 SC cells without doxycycline (no increased PR isoform B), 72 hours
Protocol: (§1) The SC cells were seeded on poly-D-lysine coated, black clear-bottom 384-well plates at 2500/well, in 25 μL Phenol Red Free Dulbecco's Modified Eagle Medium (DMEM) supplemented with 10% w/w charcoal-dextran treated fetal bovine serum (FBS) and 1% w/w pen-strep, with or without 10 ng/mL doxycycline. Pen-Strep is a commercially available mixture of penicillin G and streptomycin, which is used in mammalian cell culture media to prevent bacterial contamination. Phenol Red Free Dulbecco's Modified Eagle Medium (DMEM) supplemented with 10% w/w charcoal-dextran treated fetal bovine serum (FBS) and 1% w/w pen-strep, with or without 10 ng/mL doxycycline is herein referred to as Treatment Medium. Following seeding of cells in the plates, the plates were spun at 300×g for 30 seconds, then equilibrated to room temperature for 30 minutes, and then deposited in a humidified tissue culture incubator maintained at 37° C. with 5% CO2.
(§2) At 24 hours after seeding of the cells, dilutions of test compound were prepared in DMSO and dissolved in Treatment Medium, to achieve a final DMSO concentration of 0.5% w/w, thereby providing the Test Compound Solution. A 25 μL aliquot of the Test Compound Solution was added to cells in the well plates. An equal volume of a solution containing DMSO and Treatment Medium was used as a negative control. Following treatment of cells with Test Compound Solution or said equal volume of a solution containing DMSO and Treatment Medium, the plates were spun at 300×g for 30 seconds, and then left in an incubator for 72 hours.
(§3) At the end of the treatment duration, cell viability was quantified with CellTiter-Glo 2.0 reagent (Promega Cat #G9243). For this purpose, plates were equilibrated to room temperature for 30 minutes, and then 25 μL of CellTiter-Glo 2.0 reagent was added to cells in the plate wells. Plates were then agitated on a shaker for two minutes at 500 rpm and subsequently incubated at room temperature for 10 minutes. Following incubation, the plates were spun at 3000×g for 30 seconds, then sealed with an optical adhesive cover, and luminescence readings were measured with an EnVision Plate Reader (Perkin Elmer).
(§4) Data was normalized using zero luminescence for baseline. A four-parameter non-linear regression curve fit was applied to dose-response data in GraphPad Prism data analysis software to determine the half-maximal growth inhibitory concentration (GI50) for each test compound.

VCaP cells = assay: Cellular growth inhibition assay for VCaP cells, CellTiter-Glo; assay type: cell-based, human; conditions: 72 hours
Procedure, shortened: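 GI50 values come from four-parameter curve fits of luminescence data normalized to a zero baseline. Compound, in medium with 0.5% DMSO, was added one day after plating and left for 72 h before CellTiter-Glo 2.0 addition.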

[2] = system: T-Rex 293 cell line SC3 cells having increased expression of androgen receptor protein due to exposure to doxycycline; assay: Cellular growth inhibition, T-Rex 293 SC3 cells with doxycycline (increased androgen receptor expression), CellTiter-Glo; assay type: cell-based; conditions: T-Rex 293 SC3 cells with 10 ng/mL doxycycline (increased androgen receptor expression), 72 hours, CellTiter-Glo 2.0
Procedure, shortened: (§5)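 Growth inhibition is measured in an inducible AR-expressing T-Rex 293 clone, SC3, cultured with or without 10 ng/mL doxycycline in hormone-depleted medium. Test compounds are applied for 72 hours. GI50 values derive from CellTiter-Glo 2.0 signal fitted by four-parameter regression.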

[3] = system: T-Rex 293 cell line SC cells having increased expression of progesterone receptor isoform B protein; assay: Cellular growth inhibition assay, T-Rex 293 SC cells exposed to doxycycline (increased progesterone receptor isoform B expression), CellTiter-Glo; assay type: cell-based; conditions: T-Rex 293 SC cells with 10 ng/mL doxycycline (increased PR isoform B), 72 hours
Protocol: as §1, §2, §3, §4

[4] = system: T-Rex 293 cell line SC3 cells lacking increased expression of androgen receptor protein; assay: Cellular growth inhibition, T-Rex 293 SC3 cells without doxycycline (no increased androgen receptor expression), CellTiter-Glo; assay type: cell-based; conditions: T-Rex 293 SC3 cells not exposed to doxycycline (no increased androgen receptor expression), 72 hours
Procedure, shortened: as §5

[5] = biological target: T1, progesterone receptor ligand binding domain (GST-tagged PR LBD) (Homo sapiens, UniProt P06401); assay: FP Assay for Binding Affinity to Progesterone Receptor (PolarScreen Progesterone Receptor Competitor Assay Kit); conditions: fluorescence polarization, Fluormone tracer, 2 hours at room temperature
T1 construct: purchased Life Technologies A15905 or a15906
T1 sequence (P06401 679-913 limits assumed): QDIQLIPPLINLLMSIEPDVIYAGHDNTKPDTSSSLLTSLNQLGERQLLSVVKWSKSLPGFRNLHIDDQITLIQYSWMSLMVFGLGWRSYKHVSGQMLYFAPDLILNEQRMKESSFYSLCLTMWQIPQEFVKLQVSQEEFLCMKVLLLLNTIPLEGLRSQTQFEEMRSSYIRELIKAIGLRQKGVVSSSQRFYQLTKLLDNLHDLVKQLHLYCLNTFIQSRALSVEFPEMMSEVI
Protocol: Exemplary compounds were tested for ability to bind to the progesterone receptor ligand binding domain (LBD).
Compounds were tested using the PolarScreen™ Progesterone Receptor Competitor Assay Kit (Life Technologies Cat #A15905 or a15906), as per the manufacturer's instructions. Briefly, GST-tagged PR LBD, Fluormone tracer, and compound were mixed and incubated for 2 hours at room temperature in the dark. Following incubation, the plates were spun at 3000×g for 30 seconds, then sealed with an optical adhesive cover, and fluorescence polarization was measured using appropriate excitation and emission filters with an EnVision Plate Reader (Perkin Elmer). Compound concentration vs. mP value were plotted in Prism (GraphPad). A four-parameter non-linear regression curve fit was applied to dose-response data to determine the half-maximal inhibitory concentration (IC50) for each test compound.

Row | Compound | GI50 (T47D cells; Homo sapiens) [nM] | GI50 [1] [nM] | GI50 (VCaP cells; Homo sapiens) [nM] | GI50 [2] [nM] | GI50 [3] [nM] | GI50 [4] [nM] | IC50 [5] [nM] | GI50 (T47D cells) [nM] | GI50 (VCaP cells) [nM]
1 | Cn1cc(-c2cc(C(C)(C)O)ccc2Oc2ccc(N3CC(CC4CN(c5cnc(C(=O)N[C@H]6C(C)(C)[C@H](Oc7ccc(C#N)c(Cl)c7)C6(C)C)cn5)C4)C3)cc2)c2cc[nH]c2c1=O [Compound I-317] | < 500 | 500 to 1500 | < 500 | < 500 | < 500 | < 500 | – | – | –
2 | CCS(=O)(=O)c1ccc(Oc2cccc(CCCOC3CC4(C3)CN(c3ccc(C(=O)N[C@H]5C(C)(C)[C@H](Oc6ccc(C#N)c(Cl)c6)C5(C)C)cn3)C4)c2F)c(-c2cn(C)c(=O)c3[nH]ccc23)c1 [Compound I-215] | < 500 | – | < 500 | < 500 | – | < 500 | > 2500 | – | –
3 | Cn1cc(-c2cc(C(C)(C)O)ccc2Oc2ccc(N3CC(C4CCN(c5ncc(C(=O)N[C@H]6C(C)(C)[C@H](Oc7ccc(C#N)c(Cl)c7)C6(C)C)cn5)CC4)C3)cc2)c2cc[nH]c2c1=O [Compound I-299] | – | 500 to 1500 | – | < 500 | < 500 | > 3000 | – | < 500 | < 500
4 | CN(CCOc1ccc(Oc2ccc(C(C)(C)O)cc2-c2cn(C)c(=O)c3[nH]ccc23)cc1)c1ncc(C(=O)N[C@H]2C(C)(C)[C@H](Oc3ccc(C#N)c(Cl)c3)C2(C)C)cn1 [Compound I-199] | < 500 | < 500 | < 500 | < 500 | < 500 | < 500 | – | – | –
5 | CCS(=O)(=O)Nc1ccc(Oc2cccc(OC3CC4(CCN(c5ncc(C(=O)N[C@H]6C(C)(C)[C@H](Oc7ccc(C#N)c(Cl)c7)C6(C)C)cn5)CC4)C3)c2)c(-c2cn(C)c(=O)c3[nH]ccc23)c1 [Compound I-44] | < 500 | > 3000 | < 500 | < 500 | < 500 | > 3000 | – | – | –
6 | CN(CCCOc1ccc(Oc2ccc(C(C)(C)O)cc2-c2cn(C)c(=O)c3[nH]ccc23)cc1)c1ncc(C(=O)N[C@H]2C(C)(C)[C@H](Oc3ccc(C#N)c(Cl)c3)C2(C)C)cn1 [Compound I-200] | 500 to 1500 | < 500 | < 500 | < 500 | < 500 | 500 to 1500 | – | – | –
7 | CCS(=O)(=O)Nc1ccc(Oc2cccc(N3CCC(CC4CCN(c5ncc(C(=O)N[C@H]6C(C)(C)[C@H](Oc7ccc(C#N)c(Cl)c7)C6(C)C)cn5)CC4)CC3)c2)c(-c2cn(C)c(=O)c3[nH]ccc23)c1 [Compound I-36] | < 500 | > 3000 | < 500 | < 500 | < 500 | > 3000 | – | – | –
8 | CCS(=O)(=O)c1ccc(Oc2cccc(CCCCN3CC4(C3)CN(c3ncc(C(=O)N[C@H]5C(C)(C)[C@H](Oc6ccc(C#N)c(Cl)c6)C5(C)C)cn3)C4)c2F)c(-c2cn(C)c(=O)c3[nH]ccc23)c1 [Compound I-206] | < 500 | < 500 | < 500 | < 500 | < 500 | < 500 | – | – | –
9 | CCS(=O)(=O)c1ccc(Oc2ccc(OCC3CCN(c4ncc(C(=O)N[C@H]5C(C)(C)[C@H](Oc6ccc(C#N)c(Cl)c6)C5(C)C)cn4)CC3)cc2)c(-c2cn(C)c(=O)c3[nH]ccc23)c1 [Compound I-213] | – | < 500 | – | < 500 | < 500 | < 500 | – | < 500 | < 500
10 | CCS(=O)(=O)c1ccc(Oc2cccc(CCCOC3CC4(C3)CN(c3ncc(C(=O)N[C@H]5C(C)(C)[C@H](Oc6ccc(C#N)c(Cl)c6)C5(C)C)cn3)C4)c2F)c(-c2cn(C)c(=O)c3[nH]ccc23)c1 [Compound I-205] | < 500 | < 500 | < 500 | < 500 | < 500 | < 500 | – | – | –
11 | CN(CCc1ccc(Oc2ccc(C(C)(C)O)cc2-c2cn(C)c(=O)c3[nH]ccc23)cc1)c1ncc(C(=O)N[C@H]2C(C)(C)[C@H](Oc3ccc(C#N)c(Cl)c3)C2(C)C)cn1 [Compound I-198] | < 500 | < 500 | < 500 | < 500 | < 500 | < 500 | – | – | –
12 | CCS(=O)(=O)Nc1ccc(Oc2cccc(OCCCC3CCN(c4ncc(C(=O)N[C@H]5C(C)(C)[C@H](Oc6ccc(C#N)c(Cl)c6)C5(C)C)cn4)CC3)c2)c(-c2cn(C)c(=O)c3[nH]ccc23)c1 [Compound I-27] | < 500 | > 3000 | < 500 | < 500 | < 500 | 500 to 1500 | – | – | –
13 | Cn1cc(-c2cc(C(C)(C)O)ccc2Oc2ccc(N3CC(CC4CN(c5ccc(C(=O)N[C@H]6C(C)(C)[C@H](Oc7ccc(C#N)c(Cl)c7)C6(C)C)nc5)C4)C3)cc2)c2cc[nH]c2c1=O [Compound I-322] | – | 1500 to 3000 | – | < 500 | < 500 | 1500 to 3000 | – | < 500 | 500 to 1500
14 | CCS(=O)(=O)c1ccc(Oc2cccc(OCCN3CCN(c4ncc(C(=O)N[C@H]5C(C)(C)[C@H](Oc6ccc(C#N)c(Cl)c6)C5(C)C)cn4)CC3)c2F)c(-c2cn(C)c(=O)c3[nH]ccc23)c1 [Compound I-207] | – | < 500 | – | < 500 | < 500 | < 500 | – | – | < 500
15 | Cn1cc(-c2cc(C(C)(C)O)ccc2Oc2ccc(C3CN(C4CCN(c5ncc(C(=O)N[C@H]6C(C)(C)[C@H](Oc7ccc(C#N)c(Cl)c7)C6(C)C)cn5)CC4)C3)cc2)c2cc[nH]c2c1=O [Compound I-304] | – | 500 to 1500 | – | < 500 | < 500 | < 500 | – | < 500 | < 500
16 | CCS(=O)(=O)Nc1ccc(Oc2cccc(N3CC(OC4CCN(c5ncc(C(=O)N[C@H]6C(C)(C)[C@H](Oc7ccc(C#N)c(Cl)c7)C6(C)C)cn5)CC4)C3)c2F)c(-c2cn(C)c(=O)c3[nH]ccc23)c1 [Compound I-175] | – | > 3000 | – | < 500 | < 500 | < 500 | – | < 500 | < 500
17 | Cn1cc(-c2cc(C(C)(C)O)ccc2Oc2ccc(N3CC(OC4CN(c5ncc(C(=O)N[C@H]6C(C)(C)[C@H](Oc7ccc(C#N)c(Cl)c7)C6(C)C)cn5)C4)C3)cc2)c2cc[nH]c2c1=O [Compound I-303] | – | 500 to 1500 | – | < 500 | < 500 | < 500 | – | < 500 | < 500
